What was measured:
[1] = test system: human pancreatic cancer cells PANC-1 xenograft; assay: In-vivo growth of PANC-1 xenografts in nude mice; set-up: species or system BALB/c nude mice; settings: Mus musculus, ip, vs DMSO solvent control, read-out: Curative effect (inhibition rate %) of tumor weight; for inhibition in vivo at 60 mg/kg: 60 mg/kg intraperitoneal once a day; for inhibition in vivo at 90 mg/kg: 90 mg/kg intraperitoneal once a day
Description: (§1) RPMI1640 and DMEM culture solutions: Hyclone Company; inactivated fetal bovine serum: Hyclone Company, preserved at −20° C.; trypsin: Amersco Company; and 0.4% trypan blue: Sigma Company;
(§2) (3) Observation of growth of tumors in nude mice: the activities (including food intake, traits of urine and stool, mental state and the like) of the nude mice and the tumor growth time and growth situation of the transplanted tumors were observed every day, the body weight and the size of the tumors were measured once every 2-3 days. The long diameter a and the short diameter b (mm) of each tumor were measured by a vernier caliper to calculate the volume, wherein the volume V=π1/2·ab^2 (mm^3);
(§3) (4) sacrifice of animals: the mice were anesthetized and photoed after treatment experiments; the nude mice were sacrificed by breaking neck, the tumor tissues were stripped under sterile conditions and the weight of the tumors was weighed; and the effects of the drugs on pathology and toxicity of the various organs and tissues were detected.

mouse melanoma cells B16 = assay: MTT growth inhibition, B16 cells; format: cell-based; settings: Mus musculus, 72 h after treatment, read-out: Drug concentration (IC50) at which 50% cancer cells survived
Excerpt: (§4) Cell lines and cell culture: human lung cancer cells A549 and H460, human breast cancer cells MCF-7 and MDA-MB-231, human gastric cancer cells BGC-823, human prostate cancer cells PC-3, human chronic leukemia cells K562, human lymphoma cells U937, human liver cancer cells SMMC7721 and HepG2, human colon cancer cells HT29, human pancreatic cancer cells PANC-1 and BxPC3, human cervical cancer Hela cell lines, human brain tumor cells Daoy, human neuroma cells D54 and human oral epidermoid cancer cells KBV200 line with strong drug resistance, mouse melanoma cells B16, and highly metastatic Lewis lung cancer cell lines were purchased from American Type Culture Collection of the U.S. These cells were cultured with DMEM and RPMI-1640 culture solutions separately.
(§5) The procedure was as follows:
(§6) (1) 0.25% trypsin was used to digest cancer cells in a logarithmic growth phase to prepare a single-cell suspension, the concentration of cells was adjusted to 5×10^4/mL, and the adjusted suspension was inoculated into a 96-well culture plate with 100 μl per well;
(§7) (2) The culture plate was transferred into a 37° C. incubator with a saturated humidity and 5% of CO2 and cultured for 24 h; the compounds and the intermediates thereof obtained in embodiments 1-7 and the compound as represented by formula (IIIa) or the positive control anti-cancer drug with the concentration of 1-1000 μM/L were added to enable the final concentration to be 0.1-1500 μM/L. Control wells (only added with 200 μl of cell suspension) and drug-free blank control wells (containing the solvent of 0.01% DMSO) were set, each group included 8 wells, and the plate was placed into the 37° C. incubator with saturated humidity and 5% of CO2 for culturing;
(§8) (3) The 96-well plate was taken out at 48 h and 72 h after dosing, the original culture medium was carefully removed by suction, 100 μl of serum-free DMEM culture medium and 10 μl of MTT (5 mg/mL) solution were added in each well. The plate was continuously cultured for another 4 h and then the culture was terminated;
(§9) (4) The supernatant in the wells was carefully removed by suction, each well was added with 150 μl of DMSO and shaked at room temperature for 10-15 min to fully dissolve crystals.
(§10) (5) Colorimetric analysis: the wavelength was selected as 570 nm, the light absorbance (A value) of each well was determined on the microplate reader and the results were recorded; the experiment was repeated for three times;
(§11) (6) the experimental results were calculated according to the following formula: relative survival rate=(A value of each experimental group/A value of cell control group)×100%
(§12) Calculation of median-effect concentration (IC50, namely the drug concentration at which the inhibition rate is 50%, also known as half inhibitory concentration):
(§13) IC50 of the detected component was calculated by using a regression equation.

[2] = test system: human oral epidermoid cancer cells KBV200; assay: MTT growth inhibition, KBV200 cells; format: cell-based; settings: 72 h after treatment, read-out: Drug concentration (IC50) at which 50% cancer cells survived
Excerpt: as §4, §5, §6, §7, §8, §9, §10, §11, §12, §13

[3] = test system: human breast cancer cells MCF-7; assay: MTT growth inhibition, MCF-7 cells; format: cell-based; settings: MCF7, 72 h after treatment, read-out: Drug concentration (IC50) at which 50% cancer cells survived
Excerpt: as §4, §5, §6, §7, §8, §9, §10, §11, §12, §13

[4] = test system: human chronic leukemia cells K562; assay: MTT growth inhibition, K562 cells; format: cell-based; settings: 72 h after treatment, read-out: Drug concentration (IC50) at which 50% cancer cells survived
Excerpt: as §4, §5, §6, §7, §8, §9, §10, §11, §12, §13

[5] = test system: human breast cancer cells MDA-MB-231; assay: MTT growth inhibition, MDA-MB-231 cells; format: cell-based; settings: 72 h after treatment, read-out: Drug concentration (IC50) at which 50% cancer cells survived
Excerpt: as §4, §5, §6, §7, §8, §9, §10, §11, §12, §13

[6] = test system: human colon cancer cells HT29; assay: MTT growth inhibition, HT29 cells; format: cell-based; settings: HT-29, 72 h after treatment, read-out: Drug concentration (IC50) at which 50% cancer cells survived
Excerpt: as §4, §5, §6, §7, §8, §9, §10, §11, §12, §13

[7] = test system: human liver cancer cells SMMC7721 xenograft; assay: In-vivo growth of SMMC7721 xenografts in nude mice; set-up: species or system BALB/c nude mice; settings: Mus musculus, SMMC-7721, ip, S-7721 xenograft, vs DMSO solvent control, read-out: Curative effect (inhibition rate %) of tumor weight; for inhibition in vivo at 60 mg/kg: 60 mg/kg intraperitoneal once a day; for inhibition in vivo at 90 mg/kg: 90 mg/kg intraperitoneal once a day
Description: as §1, §2, §3

Cyclin D1 = assay: Western Blotting, Cyclin D1 level; format: cell-based; settings: human liver cancer cells, Lewis lung cancer cells and other cancer cell lines and tumor tissues, read-out: Effective concentration (IC50) for inhibition of Cyclin D1
Excerpt: (§14) Antibodies: primary antibodies of VEGFR, EGFR, c-Met, K-Ras, H-Ras, Akt, NF-κB, Cyclin D1, ER-alpha, Dvl-1, Dvl-2, Dvl-3, MMP-9, MMP2, β-catenin, Bcl-2, Bax, p53, p21, E-cadherin and Caspase3 protein, purchased from American Cell Signaling Technology Company and Santa Cruz Technology Company; and H3 acetylation, H4 acetylation and HDAC (HDAC3, HDAC4 and the like) Antibody Sample Kits, purchased from Cell Signaling Technology Company of the U.S.
(§15) (3) polyacrylamide gel electrophoresis (SDS-PAGE): an equal amount of protein lysate sample was used to separate protein, film transfer, and blocking, treated with appropriate primary antibodies and secondary antibodies in sequence, and the film was washed, then the color was developed with ECL kit, and a blot protein band was detected by exposure of an X-ray film; and a Gel-Pro Analyzer was used for quantitative analysis of gray degree, optical density value of the control group and the drug treatment group in various concentration were respectively compared with that of internal reference, the obtained ratios were respectively compared with the control group, and the protein expression level was semi-quantified.

K-Ras = assay: Western Blotting, K-Ras level; format: cell-based; settings: human liver cancer cells, Lewis lung cancer cells and other cancer cell lines and tumor tissues, read-out: Effective concentration (IC50) for inhibition of K-Ras
Excerpt: as §14, §15

VEGFR2 = assay: Western Blotting, VEGFR2 level; format: cell-based; settings: human liver cancer cells, Lewis lung cancer cells and other cancer cell lines and tumor tissues, read-out: Effective concentration (IC50) for inhibition of VEGFR2
Excerpt: as §14, §15

Caspase3 = assay: Western Blotting, increase of Caspase3 level; format: cell-based; settings: liver cancer cells, Lewis lung cancer cells and other cancer cell lines and tumor tissue protein lysates, 48 h treatment, read-out: Effective concentration to increase Caspase-3 by 50%
Excerpt: as §14, §15

SMILES	inhibition in vivo at 60 mg/kg [1]	inhibition in vivo at 90 mg/kg [1]	IC50 (mouse melanoma cells B16)	IC50 [2]	IC50 [3]	IC50 [4]	IC50 [5]	IC50 [6]	inhibition in vivo at 60 mg/kg [7]	inhibition in vivo at 90 mg/kg [7]	IC50 (Cyclin D1)	IC50 (K-Ras)	IC50 (VEGFR2)	EC50 (Caspase3)
CCNC(=O)CC[C@H](N)C(=O)OC [Compound IIa, theanine methyl ester]	33.4%	37.7%	450 µM	380 µM	450 µM	350 µM	480 µM	250 µM	36.6%	38.2%	–	–	–	–
CCNC(=O)CCC(NC(=O)c1cc2cc([N+](=O)[O-])ccc2oc1=O)C(=O)OCC (stereo in doubt) [Compound If, (R)-2-(6-nitro-2-oxo-2H-benzopyran-3-carboxamido)-5-ethylamino-5-oxo-pentanoic acid ethyl ester]	53.6%	67.3%	280 µM	102 µM	112 µM	91 µM	110 µM	153 µM	65.7%	75.7%	< 90 µM	< 55 µM	< 90 µM	< 80 µM
CCNC(=O)CC[C@@H](NC(=O)c1cc2cc(Br)cc(Br)c2oc1=O)C(=O)OCC [Compound Ih, (R)-2-(6,8-dibromo-2-oxo-2H-benzopyran-3-carboxamido)-5-ethylamino-5-oxo-pentanoic ethyl ester]	51.3%	67.3%	146 µM	72 µM	91 µM	79 µM	98 µM	108 µM	57.7%	78.7%	< 70 µM	< 65 µM	< 100 µM	< 70 µM
CCNC(=O)CCC(NC(=O)c1cc2ccccc2oc1=O)C(=O)OC (stereo not shown) [Compound Ia, methyl 5-ethylamino-5-oxo-2-(2-oxo-2H-benzopyran-3-carboxamido)pentanoate]	55.8%	60.5%	145 µM	240 µM	220 µM	248 µM	240 µM	62 µM	52.7%	61.9%	< 125 µM	< 85 µM	< 125 µM	< 125 µM
CCNC(=O)CC[C@@H](NC(=O)c1cc2cc(Cl)ccc2oc1=O)C(=O)OCC [Compound Ic, (R)-2-(6-CI-2-oxo-2H-benzopyran-3-carboxamido)-5-ethylamino-5-oxo-pentanoic acid ethyl ester]	56.5%	66.7%	125 µM	97 µM	95 µM	105 µM	87 µM	105 µM	63.2%	69.2%	< 100 µM	< 65 µM	< 100 µM	< 100 µM
CCNC(=O)CCC(NC(=O)c1cc2ccccc2oc1=O)C(=O)OCC (stereo not shown) [Compound Ib, ethyl 5-ethylamino-5-oxo-2-(2-oxo-2H-benzopyran-3-carboxamido)pentanoate]	54.6%	65.9%	110 µM	136 µM	103 µM	150 µM	109 µM	105 µM	60.8%	66.6%	< 120 µM	< 75 µM	< 120 µM	< 120 µM
CCNC(=O)CCC(NC(=O)c1cc2cc(F)ccc2oc1=O)C(=O)OCC (stereo in doubt) [Compound Ie, (R)-2-(6-F-2-oxo-2H-benzopyran-3-carboxamido)-5-ethylamino-5-oxo-pentanoic acid ethyl ester]	56.6%	64.6%	230 µM	210 µM	115 µM	130 µM	90 µM	240 µM	64.8%	69.9%	< 160 µM	< 60 µM	< 90 µM	< 100 µM
CCNC(=O)CC[C@H](N)C(=O)OCC [Compound IIb, theanine ethyl ester]	32.3%	34.8%	500 µM	300 µM	300 µM	600 µM	400 µM	600 µM	44.6%	46.8%	–	–	–	–
CCNC(=O)CC[C@@H](NC(=O)c1cc2cc(Cl)cc(Cl)c2oc1=O)C(=O)OCC [Compound Ig, (R)-2-(6,8-dichloro-2-oxo-2H-benzopyran-3-carboxamido)-5-ethylamino-5-oxo-pentanoic ethyl ester]	55.6%	68.9%	125 µM	84 µM	75 µM	57 µM	92 µM	99 µM	53.6%	70.6%	< 70 µM	< 65 µM	< 100 µM	< 70 µM

Reference: patent US9518038B2, “Condensation product of theanine derivative and carboxylic acid coumarin derivative, its intermediate, preparation method and use thereof” (SHANDONG YINGDONG YINGHAO BIOTECHNOLOGY, INC., priority 2012, dated 2016)
